# Where a name gives a salt, the structure may show the parent alone.
# Molecular target: Met kinase (Homo sapiens, UniProt P08581)
# Experiment: Met kinase inhibition (cell assay)
# Type: cell-based
# Met kinase, sequence (P08581 25-1390): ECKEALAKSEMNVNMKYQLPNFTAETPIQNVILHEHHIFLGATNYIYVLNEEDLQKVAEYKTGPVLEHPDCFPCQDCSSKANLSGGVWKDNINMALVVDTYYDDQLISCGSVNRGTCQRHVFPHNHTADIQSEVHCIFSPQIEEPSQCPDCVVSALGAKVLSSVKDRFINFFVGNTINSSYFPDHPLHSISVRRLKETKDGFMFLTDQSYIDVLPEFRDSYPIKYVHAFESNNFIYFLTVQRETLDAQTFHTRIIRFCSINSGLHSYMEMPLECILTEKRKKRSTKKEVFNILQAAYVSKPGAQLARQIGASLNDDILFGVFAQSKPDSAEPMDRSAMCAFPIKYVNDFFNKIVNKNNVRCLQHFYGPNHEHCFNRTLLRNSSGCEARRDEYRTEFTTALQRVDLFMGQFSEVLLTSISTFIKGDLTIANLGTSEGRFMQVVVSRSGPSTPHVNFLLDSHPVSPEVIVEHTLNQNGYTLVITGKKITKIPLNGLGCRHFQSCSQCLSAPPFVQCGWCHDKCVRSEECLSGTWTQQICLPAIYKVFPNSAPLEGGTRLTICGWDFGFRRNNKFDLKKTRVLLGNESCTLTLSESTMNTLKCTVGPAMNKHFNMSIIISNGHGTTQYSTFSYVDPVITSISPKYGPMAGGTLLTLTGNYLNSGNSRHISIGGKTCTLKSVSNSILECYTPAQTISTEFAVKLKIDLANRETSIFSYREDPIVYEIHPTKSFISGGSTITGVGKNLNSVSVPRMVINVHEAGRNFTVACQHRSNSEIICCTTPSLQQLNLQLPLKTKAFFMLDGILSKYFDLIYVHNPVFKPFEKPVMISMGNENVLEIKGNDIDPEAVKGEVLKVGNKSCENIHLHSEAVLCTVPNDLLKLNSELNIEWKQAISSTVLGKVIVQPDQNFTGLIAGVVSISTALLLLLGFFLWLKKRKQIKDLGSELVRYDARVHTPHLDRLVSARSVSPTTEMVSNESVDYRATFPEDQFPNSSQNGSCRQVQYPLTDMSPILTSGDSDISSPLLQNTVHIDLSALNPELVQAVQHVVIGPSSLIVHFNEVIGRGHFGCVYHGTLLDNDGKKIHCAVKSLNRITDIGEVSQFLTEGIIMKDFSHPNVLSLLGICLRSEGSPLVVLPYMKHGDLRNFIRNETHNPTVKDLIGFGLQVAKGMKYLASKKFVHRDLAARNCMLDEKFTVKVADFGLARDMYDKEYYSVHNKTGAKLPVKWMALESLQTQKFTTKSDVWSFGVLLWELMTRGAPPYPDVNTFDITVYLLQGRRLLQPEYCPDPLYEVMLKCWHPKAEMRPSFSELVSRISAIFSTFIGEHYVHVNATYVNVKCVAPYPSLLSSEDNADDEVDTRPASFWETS
row,Structure (SMILES),IC50 [nM]
1,O=c1oc2c3ncccc3ccc2n1Cc1cccc(-c2ncc(OCCN3CCOCC3)cn2)c1 [Compound A103],1000 to 10000
2,CN(C)CCCOc1cnc(-c2cccc(Cn3c(=O)oc4cc(S(=O)(=O)CCO)ccc43)c2)nc1 [Compound A92],1000 to 10000
3,"CN(C)C(=O)c1ccc2oc(=O)n(Cc3cccc(NC(=O)OCCCN4CCNCC4)c3)c2c1 [Compound A4, 3-Piperazin-1-ylpropyl [3-(5-dimethylcarbamoyl-2-oxobenzoxazol-3-ylmethyl)phenyl]carbamate]",10 to 1000
4,CC(=O)c1ccc2oc(=O)n(Cc3cccc(-c4ncc(OCCCN(C)C)cn4)c3)c2c1 [Compound A67],10 to 1000
5,Cc1ccc2oc(=O)n(Cc3cccc(-c4ncc(OCC5CCNCC5)cn4)c3)c2n1 [Compound A87],10 to 1000
6,CN(C)CCCOc1cnc(-c2cccc(Cn3c(=O)oc4cc(F)c(F)cc43)c2)nc1 [Compound A93],1000 to 10000
7,"Cc1ccc2c(c1)oc(=O)n2Cc1cccc(NC(=O)OCCCN2CCN(C)CC2)c1 [Compound A21, 3-(4-Methylpiperazin-1-yl)propyl [3-(6-methyl-2-oxobenzoxazol-3-ylmethyl)phenyl]carbamate]",10 to 1000
8,"COC(=O)c1ccc2c(c1)oc(=O)n2Cc1cccc(NC(=O)OCCCN(C)C)c1 [Compound A14, 3-Dimethylaminopropyl [3-(6-methoxycarbonyl-2-oxobenzoxazol-3-ylmethyl)phenyl]carbamate]",10 to 1000
9,CN(C)CCCOc1cnc(-c2cccc(Cn3c(=O)oc4ncccc43)c2)nc1 [Compound A95],1000 to 10000
10,"CCCNC(=O)c1ccc2oc(=O)n(Cc3cccc(NC(=O)OCCCN(C)C)c3)c2c1 [Compound A13, 3-Dimethylaminopropyl [3-(5-propylcarbamoyl-2-oxobenzoxazol-3-ylmethyl)phenyl]carbamate]",10 to 1000
11,"CCOC(=O)Nc1cccc(C(C)n2c(=O)oc3ccc(C(=O)NCCCCN(C)C)cc32)c1 (stereo not drawn) [Compound A32, Ethyl (3-{1-[5-(4-dimethylaminobutylcarbamoy1)-2-oxobenzoxazol-3-yl]ethyl}phenyl)carbamate]",10 to 1000
12,CN(C)CCCOc1cnc(-c2cccc(Cn3c(=O)oc4cc5ccccc5cc43)c2)nc1 [Compound A96],10 to 1000
13,"CN(C)CCCOC(=O)Nc1cccc(Cn2c(=O)oc3ccccc32)c1 [Compound A16, 3-Dimethylaminopropyl [3-(2-oxobenzoxazol-3-ylmethyl)phenyl]carbamate]",10 to 1000
14,"COC(=O)c1ccc2oc(=O)n(Cc3cccc(-c4ncc(OCCCN(C)C)cn4)c3)c2c1 [Compound A64, methyl 3-{3-[5-(3-dimethylaminopropoxy)pyrimidin-2-yl]-benzyl}-2-oxo-2,3-dihydrobenzoxazole-5-carboxylate]",10 to 1000
15,"CN1CCN(CCCOC(=O)Nc2cccc(Cn3c(=O)oc4ccccc43)c2)CC1 [Compound A18, 3-(4-Methylpiperazin-1-yl)propyl [3-(2-oxobenzoxazol-3-ylmethyl)phenyl]carbamate]",10 to 1000
16,"CN1CCN(CCCOC(=O)Nc2cccc(Cn3c(=O)oc4cc(Cl)ccc43)c2)CC1 [Compound A6, 3-(4-Methylpiperazin-1-yl)propyl [3-(6-chloro-2-oxobenzoxazol-3-ylmethyl)phenyl]carbamate]",10 to 1000
17,"CC(=O)c1ccc2oc(=O)n(Cc3cccc(NC(=O)OCCCN4CCN(C)CC4)c3)c2c1 [Compound A8, 3-(4-Methylpiperazin-1-yl)propyl [3-(5-acetyl-2-oxobenzoxazol-3-ylmethyl)phenyl]carbamate]",10 to 1000
18,"CN(C)CCCOC(=O)Nc1cccc(Cn2c(=O)oc3cccnc32)c1 [Compound A11, 3-Dimethylaminopropyl [3-(2-oxooxazolo[4,5-b]pyridin-3-ylmethyl)phenyl]carbamate]",10 to 1000
19,"CN1CCN(CCOC(=O)Nc2cccc(Cn3c(=O)oc4ccccc43)c2)CC1 [Compound A17, 2-(4-Methylpiperazin-1-yl)ethyl [3-(2-oxobenzoxazol-3-ylmethyl)phenyl]carbamate]",10 to 1000

# The remaining lines, values ahead:
row,IC50 [nM],Structure (SMILES)
1,10 to 1000,CCS(=O)(=O)c1ccc2oc(=O)n(Cc3cccc(-c4ncc(OCCCN(C)C)cn4)c3)c2c1 [Compound A82]
2,10 to 1000,"CCOC(=O)Nc1cccc(C(C)n2c(=O)oc3ccc(C(=O)NCCCN(C)C)cc32)c1 (stereo not drawn) [Compound A36, Ethyl (3-{1-[5-(3-dimethylaminopropylcarbamoy1)-2-oxobenzoxazol-3-yl]ethyl}phenyl)carbamate]"
3,10 to 1000,"CCCNC(=O)c1ccc2oc(=O)n(Cc3cccc(NC(=O)OCCCN4CCN(C)CC4)c3)c2c1 [Compound A5, 3-(4-Methylpiperazin-1-yl)propyl [3-(5-propylcarbamoyl-2-oxobenzoxazol-3-ylmethyl)phenyl]carbamate]"
4,10 to 1000,"CN1CCN(CCCOC(=O)Nc2cccc(Cn3c(=O)oc4ccc(C(=O)N(C)C)cc43)c2)CC1 [Compound A3, 3-(4-Methylpiperazin-1-yl)propyl [3-(5-dimethylcarbamoyl-2-oxobenzoxazol-3-ylmethyl)phenyl]carbamate]"
5,10 to 1000,"CCOC(=O)Nc1cccc(Cn2c(=O)oc3ccc(C(=O)NCCN(C)C)cc32)c1 [Compound A30, Ethyl {3-[5-(2-dimethylaminoethylcarbamoyl)-2-oxobenzoxazol-3-ylmethyl]phenyl}carbamate]"
6,10 to 1000,Cc1ccc2oc(=O)n(Cc3cccc(-c4ncc(OCCN5CCOCC5)cn4)c3)c2n1 [Compound A79]
7,10 to 1000,"COc1ccc2oc(=O)n(Cc3cccc(NC(=O)OCCCN4CCN(C)CC4)c3)c2c1 [Compound A1, 3-(4-methylpiperazin-1-yl)propyl [3-(5-methoxy-2-oxobenzooxazol-3-ylmethyl)phenyl]carbamate]"
8,10 to 1000,CN(C)CCCOc1cnc(-c2cccc(Cn3c(=O)oc4ccc(C#N)cc43)c2)nc1 [Compound A66]
9,10 to 1000,"CN(C)CCCCNC(=O)c1ccc2oc(=O)n(Cc3ccc4[nH]c(=O)[nH]c4c3)c2c1 [Compound A34, N-(4-Dimethylaminobutyl)-2-oxo-3-(2-oxo-2,3-dihydro-1H-benzimidazol-5-ylmethyl)-2,3-dihydrobenzoxazole-5-carboxamide]"
10,10 to 1000,"CN(C)CCNC(=O)c1ccc2oc(=O)n(Cc3ccc4[nH]c(=O)[nH]c4c3)c2c1 [Compound A35, N-(2-dimethylaminoethyl)-2-oxo-3-(2-oxo-2,3-dihydro-1H-benzoimidazol-5-ylmethyl)-2,3-dihydrobenzoxazole-5-carboxamide]"
11,10 to 1000,"COc1ccc2c(c1)oc(=O)n2Cc1cccc(NC(=O)OCCCN2CCN(C)CC2)c1 [Compound A20, 3-(4-Methylpiperazin-1-yl)propyl [3-(6-methoxy-2-oxobenzoxazol-3-ylmethyl)phenyl]carbamate]"
12,10 to 1000,"CN1CCN(CCCOC(=O)Nc2cccc(Cn3c(=O)oc4cc(F)c(F)cc43)c2)CC1 [Compound A19, 3-(4-Methylpiperazin-1-yl)propyl [3-(5,6-difluoro-2-oxobenzoxazol-3-ylmethyl)phenyl]carbamate]"
13,10 to 1000,"CCOC(=O)Nc1cccc(C(C)n2c(=O)oc3ccc(C(=O)NCCN(C)C)cc32)c1 (stereo not drawn) [Compound A33, Ethyl (3-{1-[5-(2-dimethylaminoethylcarbamoy1)-2-oxobenzoxazol-3-yl]ethyl}phenyl)carbamate]"
14,10 to 1000,"CC(O)c1ccc2c(c1)oc(=O)n2Cc1cccc(NC(=O)OCCCN2CCN(C)CC2)c1 (stereo not drawn) [Compound A9, 3-(4-methylpiperazin-1-yl)propyl {3-[6-(1-hydroxyethyl)-2-oxobenzoxazol-3-ylmethyl]phenyl}carbamate]"
15,10 to 1000,"CN(C)CCCOC(=O)Nc1cccc(Cn2c(=O)oc3ccc(C(=O)N(C)C)cc32)c1 [Compound A12, 3-Dimethylaminopropyl [3-(5-dimethylcarbamoyl-2-oxobenzoxazol-3-ylmethyl)phenyl]carbamate]"
16,10 to 1000,"CC(=O)c1ccc2c(c1)oc(=O)n2Cc1cccc(NC(=O)OCCCN2CCN(C)CC2)c1 [Compound A22, 3-(4-Methylpiperazin-1-yl)propyl [3-(6-acetyl-2-oxobenzoxazol-3-ylmethyl)phenyl]carbamate]"
17,10 to 1000,"CCOC(=O)Nc1cccc(Cn2c(=O)oc3ccc(C(=O)NCCCN(C)C)cc32)c1 [Compound A31, Ethyl {3-[5-(3-dimethylaminopropylcarbamoyl)-2-oxobenzoxazol-3-ylmethyl]phenyl}carbamate]"
18,10 to 1000,CN1CCN(CCCOC(=O)Nc2cccc(Cn3c(=O)oc4ccc(Cl)cc43)c2)CC1 [Compound A2]
19,10 to 1000,CN(C)CCCOc1cnc(-c2cccc(Cn3c(=O)oc4cc([N+](=O)[O-])ccc43)c2)nc1 [Compound A76]
20,10 to 1000,"Cc1ccc2oc(=O)n(Cc3cccc(NC(=O)OCCCN4CCN(C)CC4)c3)c2c1 [Compound A7, 3-(4-Methylpiperazin-1-yl)propyl [3-(5-methyl-2-oxobenzoxazol-3-ylmethyl)phenyl]carbamate]"
21,10 to 1000,"CCCNC(=O)c1ccc2oc(=O)n(Cc3cccc(NC(=O)OCCCN4CCNCC4)c3)c2c1 [Compound A10, 3-Piperazin-1-ylpropyl [3-(5-propylcarbamoyl-2-oxobenzoxazol-3-ylmethyl)phenyl]carbamate]"
22,10 to 1000,"COC(=O)c1ccc2oc(=O)n(Cc3cccc(NC(=O)OCCCN(C)C)c3)c2c1 [Compound A15, 3-Dimethylaminopropyl [3-(5-methoxycarbonyl-2-oxobenzoxazol-3-ylmethyl)phenyl]carbamate]"
23,10 to 1000,"CCOC(=O)Nc1cccc(Cn2c(=O)oc3cc(C(=O)OC)ccc32)c1 [Compound A37, Methyl 3-(3-ethoxycarbonylaminobenzyl)-2-oxo-2,3-dihydrobenzoxazole-6-carboxylate]"

# System: not given
# Experiment: not given
row,melting point,Structure (SMILES)
1,273 °C,"CN(C)CCNC(=O)C(=O)Nc1cccc(Cn2c(=O)oc3cc(Cl)ccc32)c1 (as salt: hydrochloride) [Compound A141, N-[3-(6-chloro-2-oxobenzoxazol-3-ylmethyl)phenyl]-N′-(2-dimethylaminoethyl)oxalamide]"
2,236 to 238 °C (dec.),"CC(c1cccc(NC(=O)OCCN2CCN(C)CC2)c1)n1c(=O)oc2cc(F)c(F)cc21 (stereo not drawn) (as salt: hydrochloride) [Compound A27, 2-(4-methylpiperazin-1-yl)ethyl {3-[1-(5,6-difluoro-2-oxobenzoxazol-3-yl)ethyl]phenyl}carbamate]"
3,125 °C,"COC(=O)c1ccc2oc(=O)n(Cc3cccc(-c4ncc(OCCCN(C)C)cn4)c3)c2c1 [Compound A64, methyl 3-{3-[5-(3-dimethylaminopropoxy)pyrimidin-2-yl]-benzyl}-2-oxo-2,3-dihydrobenzoxazole-5-carboxylate]"

# Reference: US8071593B2, “2-oxo-3-benzylbenzoxazol-2-one derivatives and related compounds as Met kinase inhibitors for the treatment of tumours” (Merck Patent Gesellschaft mit beschrankter Haftung, priority 2007, dated 2011)
